Data on 4 compounds can be found in patent publication US8003613B2, “Methods and compositions for inducing apoptosis” (University of Florida Research Foundation, Inc., priority 2003, dated 2011).

Assay [1] has as its system MCF10A normal breast cells. Put plainly: Apoptosis assay, MCF10A. The assay is classed as cell-based, human. Here is the method:
(§1) Visualization and penetration of Peptide-35 into breast cancer cells was accomplished by coupling the peptide to FITC and using a TAT penetration sequence. Apoptosis was measured using the Elisa Plus cell death detection assay after cells were treated with drug for 24 hours. Apoptosis was further confirmed by the Hoechst assay.
(§2) Cells were treated with drug for 24 hours and then harvested. Hoechst 33342 was added and the specimens were mounted on glass coverslips. The slides were viewed under the microscope for apoptotic nuclei. The percent apoptosis was calculated by dividing the number of apoptotic cells by the total number of cells (300).

Assay [2] has as its system IMR neuroblastoma cells. Put plainly: Detachment assay, IMR neuroblastoma. Format: cell-based. As to conditions: IMR neuroblastoma cells with high VEGFR-3; peptide conjugated with TAT. As for the experimental part:
(§3) Detached and attached cells after drug treatment for 6 hours cells were counted by hemocytometer. The percent detachment was calculated by dividing the number of detached cells by the total number of cells.

The subject of assay [3] is IMR neuroblastoma cells. Briefly: Apoptosis assay, IMR neuroblastoma. Format: cell-based. The settings on record: IMR neuroblastoma cells with high VEGFR-3; peptide conjugated with TAT. As for the experimental part: as §2
For assay [4], the system named is Mouse Fibroblast, FAK/FAK+. Briefly: Detachment assay, mouse fibroblasts. As to conditions: FAK+ compared with FAK-deficient. Format: cell-based. As for the experimental part: BT474 cells were maintained in RPMI 1640 with 10% fetal bovine serum, 10 μg/ml insulin, and 2 mM L-glutamine. Mouse embryonic fibroblasts were maintained in DMEM with 10% FBS, Amphotericin B, and NEAA. HEK293 human embryonic kidney cells were maintained in DMEM with 10% FBS, and 2 mM L-glutamine. All cells were incubated at 37° C. in 5% CO2. Detached and attached cells after drug treatment for 6 hours cells were counted by hemocytometer. The percent detachment was calculated by dividing the number of detached cells by the total number of cells.

For assay [5], the target named is T1, chicken FAT, FAK C-terminal domain (Gallus gallus, UniProt Q00944).
T1 sequence (Q00944 915-1046 limits assumed): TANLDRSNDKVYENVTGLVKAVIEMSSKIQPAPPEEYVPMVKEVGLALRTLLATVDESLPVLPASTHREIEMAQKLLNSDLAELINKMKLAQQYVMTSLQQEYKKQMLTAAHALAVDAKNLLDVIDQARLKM
Put plainly: NMR analysis of peptide binding to FAT domain. The settings on record: preliminary NMR analysis. Here is the method: Structural analysis of VEGFR-3 peptide binding to the FAT domain of FAK is performed. Structural analysis is by nuclear magnetic resonance (NMR) spectroscopy. The solvent accessible area of the FAT-domain is predominantly hydrophilic with hydrophobic patches located on the helix 1-helix 4 face and the helix 2-helix 3 face. The hydrophobic patches may be involved in paxillin binding interactions. Results from these analyses indicate that NMR approaches will be successful in delineating detailed binding interactions between the inhibitor peptide and the FAT domain.
The site of peptide binding and is determined and specificity of binding is analyzed. Different scrambled peptides are synthesized to analyze the specificity of NMR assay. Different mutant peptides are synthesized to determine specific amino-acids involved in this interaction.

The test system of a further assay is cancer cells. Briefly: Apoptosis in cancer cell lines. The settings on record: different cancer cell lines. The assay is classed as cell-based, human. As for the experimental part:
as §1, §2

A further assay deals with VEGFR-3. The settings on record: no method given; cited from earlier work.
The next assay deals with T2, FAK-CD (Homo sapiens, UniProt Q05397).
T2 construct: made in house
T2 sequence (Q05397 693-1052 limits assumed): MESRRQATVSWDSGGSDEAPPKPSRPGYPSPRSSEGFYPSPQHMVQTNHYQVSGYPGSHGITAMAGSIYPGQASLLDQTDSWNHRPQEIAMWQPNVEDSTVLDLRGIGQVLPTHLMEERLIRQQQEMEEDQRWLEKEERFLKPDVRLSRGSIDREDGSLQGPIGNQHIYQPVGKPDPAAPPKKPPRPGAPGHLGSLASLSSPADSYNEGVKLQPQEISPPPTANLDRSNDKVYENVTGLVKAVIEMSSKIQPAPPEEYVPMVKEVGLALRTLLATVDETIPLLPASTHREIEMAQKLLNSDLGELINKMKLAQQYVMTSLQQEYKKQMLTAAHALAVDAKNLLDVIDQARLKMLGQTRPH
Briefly: Phage display / phage overlay binding to FAK-CD. The settings on record: Western blot/phage overlay. From the text:
Peptides that bind FAK were isolated by phage display techniques. Baculovirus FAK-CD was the target protein and peptides were isolated from a phage library (New England Biolabs). After three rounds of panning, recovered phages were sequenced to identify potential peptides that bind FAK. Western-blot analysis and phage overlay were used to confirm the binding of these peptides to FAK. Peptide binding partners to FAK-CD were isolated by phage display. Baculoviral FAK-CD was used as a target and was coated to a plate and peptides were isolated from a phage library containing different 12-amino acids (New England Biolabs). After three rounds of panning, recovered phages were sequenced to identify potential peptides that bind FAK. […] Pure protein (4 μg) with loading buffer was boiled for 10 min and resolved by SDS-PAGE. Proteins were transferred to polyvinylidene difluoride membrane, probed with phage-35, and detected by chemiluminescence (Perkin-Elmer Life Sciences, Inc.).
On the technique in general: A western blot detects proteins with antibodies after separation by electrophoresis.

Assay [6] relates to BT474, BT20, and MCF7 breast cancer cells. Put plainly: Displacement of FAK from focal adhesions, rounding and detachment in breast cancer cells. The assay is classed as cell-based, human. As to conditions: peptide coupled to TAT-FITC. As for the experimental part: as §1
(§4) Peptide-35 and AV3 (SEQ ID NO: 3) were coupled to a TAT sequence (YGRKKRRQRRR; SEQ ID NO: 5) to allow cellular penetration. Peptide-35 was also coupled to FITC for visualization of the peptide inside cells. Anti-FAK, anti-GST, anti-VEGFR-3, and anti-tubulin antibodies were used for immunoprecipitation and western blotting.
(§5) Cells were plated onto coverslips in six-well culture plates in medium for 24 hours and stained with anti-FAK and anti-VEGFR-3 antibodies and visualized for co-localization.

The next assay concerns normal MCF10A cells. Put plainly: Displacement of FAK from focal adhesions, rounding and detachment in normal breast cells. The assay is classed as cell-based, human. As to conditions: peptide coupled to TAT-FITC. Here is the method: as §1, §4, §5
For assay [7], the system named is BT474 breast cancer cells. Put plainly: Detachment assay, BT474. The assay is classed as cell-based, human. As to conditions: 6 hours treatment. Here is the method: as §3
Assay [8] relates to MCF10A normal breast cells. Briefly: Detachment assay, MCF10A. The assay is classed as cell-based, human. The settings on record: 6 hours treatment. As for the experimental part: as §3
For assay [9], the system named is BT474 breast cancer cells. Briefly: Apoptosis assay, BT474. Format: cell-based, human. As to conditions: 24 hours treatment, confirmed by Hoechst assay. As for the experimental part: as §1, §2

Like-named read-outs stand apart in the source and are kept apart here. Where no end group is shown, it is not given here.

With “WHWRPWTPCKMF (also: TAT peptide conjugated; listed as Homo sapiens) [AV3, synthesized peptide homologous to twelve amino-acids of VEGFR-3; conjugated with TAT peptide for penetration into cells]”, the apoptosis entry in assay [1] was “not observed”; in the assay on IMR neuroblastoma cells [3] it was “increased detachment and apoptosis”. The detachment entry with IMR neuroblastoma cells [2] was “increased detachment”; in assay [4], “Mouse Fibroblast, FAK/FAK+. Greater”. Moreover, the “binding to FAT domain by NMR” value in assay [5] is given as “detected binding”. Also, the “apoptosis (with detachment / loss of focal adhesions) in cancer cells” value with cancer cells was “induces detachment and apoptosis”; in the assay on cancer cells (listed as VEGFR-3 (AV-3) peptide), “caused apoptosis in cancer cells similar to peptide 35”.

As for `CC(C)(C)n1nc(-c2ccc(Cl)cc2)c2c(N)ncnc21` [PP2], in the assay on VEGFR-3, the “inhibition of VEGFR-3 phosphorylation” value is on record as “inhibited”.

Take “WHWQWTPWSIQP (also: TAT and FITC conjugated; listed as Homo sapiens) [Peptide-35, coupled to TAT (and FITC) for cell penetration]”: the “binding to FAK-CD (C-terminal part of FAK)” value with FAK-CD was “binds to specific sequences of FAK-CD”; in the assay with FAK-CD (listed as peptide 35), “binds to the C-terminal part of FAK and FAT domain”. Also, the “displacement of FAK from focal adhesions, degradation of FAK, rounding, detachment” value was “cause displacement of FAK from focal adhesions, degradation of FAK, rounding, and detachment” in [6]; “caused displacement of FAK from focal adhesions” in assay [6] (listed as peptide-35); “not in normal MCF10A cells” in the assay with normal MCF10A cells; “not in normal MCF10A breast cells” in the assay on normal MCF10A cells (listed as peptide-35). The detachment result is “caused detachment” in [7], “higher level of detachment” in assay [7] (listed as peptide-35), “not in MCF10A normal breast cells” in assay [8] and “minimal detachment” in assay [8] (listed as peptide-35). Moreover, the apoptosis entry in assay [9] was “caused detachment and apoptosis”; in [9] (listed as peptide-35), “higher level of apoptosis”; in [1], “not in MCF10A normal breast cells”; in assay [1] (listed as peptide 35) it was “not observed”. Further, the “apoptosis (with detachment / loss of focal adhesions) in cancer cells” value was “caused loss of focal adhesions and apoptosis” with cancer cells; “induces detachment and apoptosis” with cancer cells (listed as peptide 35).

In the case of “HPWQWTISWPQW (listed as Homo sapiens) [scrambled peptide 35, control peptide, scrambled peptide 35, reference compound]”, the “displacement of FAK from focal adhesions, degradation of FAK, rounding, detachment” value in [6] is listed as “not”. In addition, the detachment result in assay [8] is “minimal detachment”. In addition, the “apoptosis (with detachment / loss of focal adhesions) in cancer cells” value in the assay on cancer cells is “not observed”.
